Bounds are passed on as bounds.

Holding throughout (assay type): cell-based
Assay [1] deals with KDR (phospho-KDR, VEGF165-stimulated HUVEC cells) (Homo sapiens (Human), UniProt P35968). Kind of assay: KDR autophosphorylation ELISA in HUVEC cells (Example G). As to conditions: cellular activity; KDR autophosphorylation ELISA in HUVEC cells. The method, then:
Human umbilical vein endothelial cells or HUVEC (Lonza #C2519A) were seeded at 2×10^4 cells/well onto 96-well plates (Corning #3904), in EGM-2 growth medium (Lonza #CC-3162) containing 1% Penicillin Streptomycin (Thermo Fisher #15140-122). HUVEC cells were incubated at 37° C., 5% CO2 for 24 h and then starved for 24 h in serum-free EBM-2 basal medium (Lonza #CC-3156) containing 1% Penicillin Streptomycin. Test compounds were serially diluted to produce an 8-point dose curve in fresh serum-free medium to a final concentration of 0.3% DMSO (vehicle) and added to the cells and incubated for 1 h. Cells were then stimulated with 100 ng/mL recombinant human VEGF165 (R&D Systems #293-VE-500) for 5 min, washed with cold PBS, and immediately lysed with […] of cold 1× lysis buffer [20 mM Tris, 137 mM sodium chloride, 2 mM EDTA, 10% glycerol, 1% NP-40 alternative, 1 mM activated sodium orthovanadate, 1 mM PefaBloc SC (Sigma-Aldrich #11429868001), protease/phosphatase inhibitor tablet (Thermo Fisher #A32959)]. Lysates were collected and 100 μL/well added into the human phospho-KDR DuoSet IC ELISA (R&D Systems #DYC1766-2). Assay was performed according to manufacturer's instructions and sample phospho-KDR concentrations were extrapolated using human phospho-KDR control (R&D Systems #841421) as a standard. Positive control wells (100% activity) contained VEGF165-stimulated, DMSO-treated cell lysates. Negative control wells (0% activity) contained non-stimulated cell lysates. IC50 values were calculated by nonlinear regression analysis using a 4-parameter logistic curve fit in ActivityBase XE (IDBS).
(ELISA stands for enzyme-linked immunosorbent assay.)

Assay [2] has as its target Met (phospho-Met, HGF-stimulated PC-3 prostate cancer cells) (Homo sapiens (Human), UniProt P08581). As to the kind of experiment: Met autophosphorylation ELISA in PC-3 cells (Example F). As to conditions: cellular activity; Met autophosphorylation ELISA in PC-3 cells; read-out: c-Met IC50. How it is done:
PC-3 prostate cancer cells (ATCC #CRL-1435) were seeded at 4×10^4 cells/well onto 24-well plates (Greiner #662165), in DMEM (Thermo Fisher #11995-040) containing 10% FBS (Thermo Fisher #26140-079), 1% MEM NEAA (Thermo Fisher #11140-050), 1% GlutaMax (Thermo Fisher #35050-061), and 1% Penicillin Streptomycin (Thermo Fisher #15140-122). PC-3 cells were incubated at 37° C., 5% CO2 for 24 h and then starved for 3 h in serum-free medium. Test compounds were serially diluted to produce an 8-point dose curve in fresh serum-free medium to a final concentration of 0.3% DMSO (vehicle) and added to the cells and incubated for 1 h. Cells were then stimulated with 100 ng/mL recombinant human HGF (R&D Systems #294-HG-250) for 10 min, washed with cold PBS, and immediately lysed with […] of cold 1× lysis buffer [20 mM Tris, 137 mM sodium chloride, 2 mM EDTA, 10% glycerol, 1% NP-40 alternative, 1 mM activated sodium orthovanadate, 1 mM PefaBloc SC (Sigma-Aldrich #11429868001), protease/phosphatase inhibitor tablet (Thermo Fisher #A32959)]. Lysates were clarified by centrifugation and 100 μL/well added into the PathScan phospho-Met (panTyr) Sandwich ELISA (Cell Signaling Technology #7333). Assay was performed according to manufacturer's instructions. Positive control wells (100% activity) contained HGF-stimulated, DMSO-treated cell lysates. Negative control wells (0% activity) contained HGF-stimulated, reference inhibitor-treated cell lysates. IC50 values were calculated by nonlinear regression analysis using a 4-parameter logistic curve fit in ActivityBase XE (IDBS).

The target in assay [3] is Mer (phospho-Mer, MERTK-transfected 293A cells) (Homo sapiens (Human), UniProt Q12866). As to the kind of experiment: Mer autophosphorylation ELISA in transient transfected 293A cells (Example H). The conditions noted are these: cellular activity; Mer autophosphorylation ELISA in transient transfected 293A cells. The method, then: 293A cells (Thermo Fisher #R70507) were seeded at 1.5×10^6 cells/well onto 100 mm dish (Greiner #664169), in DMEM (Thermo Fisher #11995-040) containing 10% FBS (Thermo Fisher #26140-079), 1% MEM NEAA (Thermo Fisher #11140-050), 1% GlutaMax (Thermo Fisher #35050-061), and 1% Penicillin Streptomycin (Thermo Fisher #15140-122). 293A cells were incubated at 37° C., 5% CO2 for 24 h and then transfected with […] MERTK DNA (Genecopoeia #EX-Z8208-M02) using TransIT LT1 transfection reagent (Mirus-Bio #MIR2305). After 24 h incubation, the transfected 293A cells were seeded at 1×10^5 cells/well onto 96-well plates (Corning #3904) in DMEM growth medium overnight. Test compounds were serially diluted to produce an 8-point dose curve in fresh serum-free medium to a final concentration of 0.3% DMSO (vehicle) and added to the cells and incubated for 1 h. Cells were then immediately lysed with 150 μL of cold 1× lysis buffer [20 mM Tris, 137 mM sodium chloride, 2 mM EDTA, 10% glycerol, 1% NP-40 alternative, 1 mM activated sodium orthovanadate, 1 mM PefaBloc SC (Sigma-Aldrich #11429868001), protease/phosphatase inhibitor tablet (Thermo Fisher #A32959)]. Lysates were clarified by centrifugation and 50 µL/well added in to the human phospho-Mer DuoSet IC ELISA (R&D Systems #DYC2579-2). Assay was performed according to manufacturer's instructions and sample phospho-Mer concentrations were extrapolated using human phospho-Mer control (R&D Systems #841793) as a standard. Positive control wells (100% activity) contained DMSO-treated cell lysates. Negative control wells (0% activity) contained reference inhibitor-treated cell lysates. IC50 values were calculated by nonlinear regression analysis using a 4-parameter logistic curve fit in ActivityBase XE (JDBS).
Sequence of Mer (phospho-Mer, MERTK-transfected 293A cells) (Q12866 21-999): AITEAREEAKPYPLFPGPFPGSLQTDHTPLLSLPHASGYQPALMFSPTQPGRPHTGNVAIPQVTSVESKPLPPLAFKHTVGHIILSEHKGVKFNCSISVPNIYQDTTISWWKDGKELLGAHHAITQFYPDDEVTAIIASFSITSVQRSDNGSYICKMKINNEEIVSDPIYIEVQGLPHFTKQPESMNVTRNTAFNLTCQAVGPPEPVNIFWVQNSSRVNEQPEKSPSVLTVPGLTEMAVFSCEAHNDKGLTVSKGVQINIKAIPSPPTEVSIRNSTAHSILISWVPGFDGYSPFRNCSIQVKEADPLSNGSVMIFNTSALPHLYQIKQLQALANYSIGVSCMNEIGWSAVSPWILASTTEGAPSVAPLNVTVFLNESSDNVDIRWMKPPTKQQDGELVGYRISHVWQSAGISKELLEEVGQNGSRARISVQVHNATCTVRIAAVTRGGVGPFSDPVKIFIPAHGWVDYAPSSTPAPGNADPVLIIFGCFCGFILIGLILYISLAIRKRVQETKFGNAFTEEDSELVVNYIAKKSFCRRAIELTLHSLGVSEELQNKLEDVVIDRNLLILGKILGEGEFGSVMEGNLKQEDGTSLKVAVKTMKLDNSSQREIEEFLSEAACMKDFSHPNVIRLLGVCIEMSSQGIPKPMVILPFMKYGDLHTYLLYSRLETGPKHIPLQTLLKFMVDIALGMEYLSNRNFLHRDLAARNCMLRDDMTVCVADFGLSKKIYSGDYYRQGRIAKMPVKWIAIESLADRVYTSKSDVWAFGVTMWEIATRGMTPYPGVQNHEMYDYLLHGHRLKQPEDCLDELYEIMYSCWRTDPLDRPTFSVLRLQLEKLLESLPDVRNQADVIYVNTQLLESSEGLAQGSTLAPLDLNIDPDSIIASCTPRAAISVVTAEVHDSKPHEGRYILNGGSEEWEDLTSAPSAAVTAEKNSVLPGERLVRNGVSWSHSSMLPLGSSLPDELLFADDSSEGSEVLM

Sequence of Met (phospho-Met, HGF-stimulated PC-3 prostate cancer cells) (P08581 25-1390): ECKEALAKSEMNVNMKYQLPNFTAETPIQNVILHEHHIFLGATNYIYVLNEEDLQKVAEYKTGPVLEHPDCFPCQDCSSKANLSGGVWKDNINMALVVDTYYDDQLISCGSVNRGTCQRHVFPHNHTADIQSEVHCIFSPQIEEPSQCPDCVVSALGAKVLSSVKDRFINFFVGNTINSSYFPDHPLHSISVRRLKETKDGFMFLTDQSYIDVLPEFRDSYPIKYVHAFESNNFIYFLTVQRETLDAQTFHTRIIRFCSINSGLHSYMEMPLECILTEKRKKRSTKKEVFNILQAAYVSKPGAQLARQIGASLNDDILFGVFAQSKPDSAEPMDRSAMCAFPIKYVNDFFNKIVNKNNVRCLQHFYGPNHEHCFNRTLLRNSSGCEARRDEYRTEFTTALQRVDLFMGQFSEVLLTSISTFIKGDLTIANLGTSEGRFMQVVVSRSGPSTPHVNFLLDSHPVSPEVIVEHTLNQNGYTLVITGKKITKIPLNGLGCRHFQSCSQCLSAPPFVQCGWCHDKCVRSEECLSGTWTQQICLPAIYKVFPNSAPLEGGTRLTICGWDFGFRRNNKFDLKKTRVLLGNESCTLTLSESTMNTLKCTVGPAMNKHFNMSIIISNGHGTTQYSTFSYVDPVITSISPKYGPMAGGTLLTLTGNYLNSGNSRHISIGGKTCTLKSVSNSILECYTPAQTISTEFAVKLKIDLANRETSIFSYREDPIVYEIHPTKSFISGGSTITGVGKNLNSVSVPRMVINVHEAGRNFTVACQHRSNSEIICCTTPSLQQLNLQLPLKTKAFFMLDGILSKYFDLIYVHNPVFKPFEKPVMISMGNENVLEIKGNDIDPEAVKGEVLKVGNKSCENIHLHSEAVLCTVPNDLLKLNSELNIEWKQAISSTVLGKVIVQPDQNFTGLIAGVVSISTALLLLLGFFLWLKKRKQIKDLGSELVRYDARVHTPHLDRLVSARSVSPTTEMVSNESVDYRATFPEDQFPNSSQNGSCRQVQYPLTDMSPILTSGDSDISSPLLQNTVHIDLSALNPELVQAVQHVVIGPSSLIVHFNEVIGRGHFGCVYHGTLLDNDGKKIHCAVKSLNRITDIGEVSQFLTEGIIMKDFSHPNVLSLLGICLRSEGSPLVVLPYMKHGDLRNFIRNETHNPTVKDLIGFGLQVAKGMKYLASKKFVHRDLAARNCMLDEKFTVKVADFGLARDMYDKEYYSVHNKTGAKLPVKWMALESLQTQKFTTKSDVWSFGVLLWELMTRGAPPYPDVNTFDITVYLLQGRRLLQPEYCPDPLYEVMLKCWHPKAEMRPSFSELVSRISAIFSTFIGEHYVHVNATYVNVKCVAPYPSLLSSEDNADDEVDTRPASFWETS
Sequence of KDR (phospho-KDR, VEGF165-stimulated HUVEC cells) (P35968 20-1356): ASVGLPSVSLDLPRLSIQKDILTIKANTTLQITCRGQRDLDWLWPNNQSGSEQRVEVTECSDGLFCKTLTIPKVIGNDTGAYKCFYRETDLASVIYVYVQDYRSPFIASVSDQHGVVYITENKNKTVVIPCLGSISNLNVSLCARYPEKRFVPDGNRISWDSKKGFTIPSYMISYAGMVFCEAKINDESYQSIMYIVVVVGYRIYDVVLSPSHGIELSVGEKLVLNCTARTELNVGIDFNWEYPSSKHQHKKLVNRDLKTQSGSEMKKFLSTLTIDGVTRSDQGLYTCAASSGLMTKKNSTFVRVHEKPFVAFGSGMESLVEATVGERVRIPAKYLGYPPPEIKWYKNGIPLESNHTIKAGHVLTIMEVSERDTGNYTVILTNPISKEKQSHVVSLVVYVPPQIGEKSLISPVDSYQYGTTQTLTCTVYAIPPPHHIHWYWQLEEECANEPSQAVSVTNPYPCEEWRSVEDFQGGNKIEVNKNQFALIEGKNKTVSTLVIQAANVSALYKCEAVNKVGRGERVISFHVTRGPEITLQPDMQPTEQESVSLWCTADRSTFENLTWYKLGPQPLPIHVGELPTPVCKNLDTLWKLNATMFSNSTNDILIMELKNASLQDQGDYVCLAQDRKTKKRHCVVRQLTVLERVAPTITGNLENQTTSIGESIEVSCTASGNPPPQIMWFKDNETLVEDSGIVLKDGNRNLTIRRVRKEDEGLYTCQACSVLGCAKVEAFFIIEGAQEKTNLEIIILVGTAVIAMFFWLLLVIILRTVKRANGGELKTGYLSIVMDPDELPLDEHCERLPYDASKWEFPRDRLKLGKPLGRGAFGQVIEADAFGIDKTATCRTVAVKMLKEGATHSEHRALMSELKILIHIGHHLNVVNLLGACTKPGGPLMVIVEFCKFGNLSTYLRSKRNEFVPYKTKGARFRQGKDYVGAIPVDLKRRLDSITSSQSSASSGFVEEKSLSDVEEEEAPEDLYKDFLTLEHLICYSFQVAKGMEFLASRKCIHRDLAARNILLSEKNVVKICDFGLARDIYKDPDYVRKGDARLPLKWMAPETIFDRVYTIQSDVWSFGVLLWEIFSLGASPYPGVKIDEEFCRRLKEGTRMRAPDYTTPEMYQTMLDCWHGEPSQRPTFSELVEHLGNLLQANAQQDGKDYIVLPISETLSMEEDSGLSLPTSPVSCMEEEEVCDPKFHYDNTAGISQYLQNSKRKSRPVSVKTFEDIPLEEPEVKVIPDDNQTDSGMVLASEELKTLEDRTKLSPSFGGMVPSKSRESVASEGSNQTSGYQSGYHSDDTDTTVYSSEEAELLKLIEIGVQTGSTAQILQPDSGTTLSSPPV

With `CCOc1ccn(-c2ccc(F)cc2)c(=O)c1C(=O)Nc1ccc(Oc2ccnc3cc(OC)c(OC)nc23)cc1` [Compound 718, N-[4-[(6,7-dimethoxy-1,5-naphthyridin-4-yl)oxy]phenyl]-4-ethoxy-1-(4-fluorophenyl)-2-oxopyridine-3-carboxamide], the figures for the IC50 in assay [1], in assay [2] and in assay [3] were 0.1 to 0.3 µM, < 0.1 µM and < 0.1 µM, respectively.
As to `COc1cnc2c(Oc3ccc(NC(=O)c4c(C)ncc(-c5ccc(F)cc5C)c4O)cc3F)ccnc2c1` [Compound 719, N-[3-fluoro-4-[(7-methoxy-1,5-naphthyridin-4-yl)oxy]phenyl]-5-(4-fluoro-2-methylphenyl)-4-hydroxy-2-methylpyridine-3-carboxamide], the IC50 in assay [1], in assay [2] and in assay [3] was < 0.1 µM in each case.
For `COc1cc2nccc(Oc3ccc(NC(=O)c4cc(C(C)=O)c(C)n(-c5ccc(F)cc5C)c4=O)cc3F)c2nc1OC` [Compound 720, 5-acetyl-N-[4-[(6,7-dimethoxy-1,5-naphthyridin-4-yl)oxy]-3-fluorophenyl]-1-(4-fluoro-2-methylphenyl)-6-methyl-2-oxopyridine-3-carboxamide], the IC50 is > 0.3 µM in assay [1], < 0.1 µM in assay [2] and < 0.1 µM in assay [3].
With `COc1cc2nccc(Oc3ccc(NC(=O)c4c(C)n(CC(F)(F)F)cc(-c5ccc(F)cc5)c4=O)cc3F)c2nc1OC` [Compound 727, N-[4-[(6,7-dimethoxy-1,5-naphthyridin-4-yl)oxy]-3-fluorophenyl]-5-(4-fluorophenyl)-2-methyl-4-oxo-1-(2,2,2-trifluoroethyl)pyridine-3-carboxamide], the IC50 is 0.1 to 0.3 µM in assay [1], < 0.1 µM in assay [2] and < 0.1 µM in assay [3].
Take `COc1cc2nccc(Oc3ccc(NC(=O)c4c(C)n(C(F)F)cc(-c5ccc(F)cc5)c4=O)cc3F)c2nc1OC` [Compound 729, 1-(difluoromethyl)-N-[4-[(6,7-dimethoxy-1,5-naphthyridin-4-yl)oxy]-3-fluorophenyl]-5-(4-fluorophenyl)-2-methyl-4-oxopyridine-3-carboxamide]: the IC50 in assay [1], in assay [2] and in assay [3] was < 0.1 µM throughout.
Consider `COc1cc2nccc(Oc3ccc(NC(=O)c4c(C)c(C)c(C)n(-c5ccccc5)c4=O)cc3F)c2nc1OC` [Compound 755, N-[4-[(6,7-dimethoxy-1,5-naphthyridin-4-yl)oxy]-3-fluorophenyl]-4,5,6-trimethyl-2-oxo-1-phenylpyridine-3-carboxamide], for which the IC50 in assay [1] was 0.1 to 0.3 µM; in assay [2], < 0.1 µM; in assay [3], < 0.1 µM.
As for `COc1cc2nccc(Oc3ccc(NC(=O)c4c(C)n(CCF)cc(-c5ccc(F)cc5C)c4=O)cc3F)c2nc1OC` [Compound 756, N-[4-[(6,7-dimethoxy-1,5-naphthyridin-4-yl)oxy]-3-fluorophenyl]-1-(2-fluoroethyl)-5-(4-fluoro-2-methylphenyl)-2-methyl-4-oxopyridine-3-carboxamide], the IC50 in assay [1], in assay [2] and in assay [3] was < 0.1 µM each time.
Turning to `CCOc1ccn(-c2ccc(F)cc2)c(=O)c1C(=O)Nc1ccc(Oc2ccnc3nc(OC)c(OCCOC)cc23)c(F)c1` [Compound 761, 4-ethoxy-N-[3-fluoro-4-[[7-methoxy-6-(2-methoxyethoxy)-1,8-naphthyridin-4-yl]oxy]phenyl]-1-(4-fluorophenyl)-2-oxopyridine-3-carboxamide], the half-maximal inhibitory concentration (IC50) in assay [1] is > 0.3 µM; in assay [2] it was < 0.1 µM; in assay [3], < 0.1 µM.
Regarding `COc1cc2nccc(Oc3ccc(NC(=O)c4cnc(C)c(-c5ccc(F)cc5)n4)cc3F)c2nc1OC` [Compound 764, N-[4-[(6,7-dimethoxy-1,5-naphthyridin-4-yl)oxy]-3-fluorophenyl]-6-(4-fluorophenyl)-5-methylpyrazine-2-carboxamide], the IC50 in assay [1] is > 0.3 µM; in assay [2] it was < 0.1 µM; in assay [3] it was < 0.1 µM.
As to `COc1cnc2c(Oc3c(F)cc(NC(=O)c4c(C)nc(C)c(-c5ccc(F)cc5C)c4O)c(F)c3F)ccnc2c1` [Compound 768, 5-(4-fluoro-2-methylphenyl)-4-hydroxy-2,6-dimethyl-N-[2,3,5-trifluoro-4-[(7-methoxy-1,5-naphthyridin-4-yl)oxy]phenyl]pyridine-3-carboxamide], the half-maximal inhibitory concentration (IC50) in assay [1], in assay [2] and in assay [3] was < 0.1 µM each time.
Take `COc1cc2nccc(Oc3ccc(NC(=O)c4c(C)nnc(-c5ccc(F)cc5C)c4OC)cc3F)c2nc1OC` [Compound 773, N-[4-[(6,7-dimethoxy-1,5-naphthyridin-4-yl)oxy]-3-fluorophenyl]-6-(4-fluoro-2-methylphenyl)-5-methoxy-3-methylpyridazine-4-carboxamide]: the half-inhibitory concentration (IC50) in assay [1], in assay [2] and in assay [3] was < 0.1 µM throughout.
`COc1cc2nccc(Oc3ccc(NC(=O)c4c5n(c(C)c(-c6ccc(F)cc6)c4=O)CCOC5)cc3F)c2nc1OC` [Compound 775, N-[4-[(6,7-dimethoxy-1,5-naphthyridin-4-yl)oxy]-3-fluorophenyl]-7-(4-fluorophenyl)-6-methyl-8-oxo-3,4-dihydro-1H-pyrido[2,1-c][1,4]oxazine-9-carboxamide]: the IC50 in assay [1], in assay [2] and in assay [3] was < 0.1 µM throughout.
Consider `COc1cc2nccc(Oc3ccc(NC(=O)c4nn(CC(F)F)c(C)c(-c5ccc(F)cc5)c4=O)cc3)c2nc1OC` [Compound 776, 1-(2,2-difluoroethyl)-N-[4-[(6,7-dimethoxy-1,5-naphthyridin-4-yl)oxy]phenyl]-5-(4-fluorophenyl)-6-methyl-4-oxopyridazine-3-carboxamide], for which the IC50 is > 0.3 µM in assay [1], < 0.1 µM in assay [2] and < 0.1 µM in assay [3].

As usually defined, the IC50 is the concentration needed to halve the response being measured.

These data come from patent US12371428B2 (Exelixis, Inc., priority 2019, dated 2025).
